Experimental data taken from PubChem BioAssay AID2060909 (Molecular Pharmacology Branch, DTP, NCI, 2025).

Test system: 362531-283-R-J2-PDC complex spheroid viability
Assay: Anticancer human tumor 362531-283-R-J2-PDC patient-derived colon adenocarcinoma cell line growth inhibition [RAS]
Settings: for IC50: curve of first compound; for viability, T/C: stronger effect = lower value
Text: RAS pathway inhibitors in Combinations in Complex Spheroids
A high-throughput screen of multi-cell type tumor spheroids was designed to identify active combinations of RAS pathway inhibitors and targeted small molecules. Complex spheroids include a stromal component modeled by human endothelial cells (HUVEC) and fibroblasts modeled by human mesenchymal stem cells (MSCs). The concentration ranges selected for each drug and investigational agent were based upon clinically achievable concentrations if the clinical Cmax of the agent was known.
Compounds. The drugs and investigational agents: abemaciclib (NSC768073), cobimetinib (NSC768068), divarasib (GDC6063, NSC841802), docetaxel (NSC628503), GDC-1971 (RLY-1971, NSC841576), gemcitabine (NSC613327), inavolisib (NSC800729), ipatasertib (NSC767898), KB-0742 (NSC834161), MRTX-1133 (NSC836407), osimertinib (NSC779217), RMC-4630 (NSC839698), RMC-6236 (NSC851965), RMC-6291 (NSC852671), Ro-3306 (NSC812927), sapanisertib (NSC764658), SN-38 (NSC673596), staurosporine (NSC755774), SY5609 (NSC837396), and tovorafenib (DAY101, NSC766906), were obtained from the National Cancer Institute (NCI) Developmental Therapeutics Program Chemical Repository. The FDA-approved anticancer drug set is available from the NCI Developmental Therapeutics Program. […] The stock solutions were prepared in dimethyl sulfoxide (DMSO, Sigma-Aldrich, St. Louis, MO, cat. D2650) at 800-fold the tested concentration and stored at -70 degrees C prior to their use. All drugs and investigational agents were tested over a range starting from a high concentration at or near the clinical Cmax and decreasing in half-log increments. If the clinical Cmax for an agent had not been determined, the highest concentration tested was 10 microM.
Cell Culture. All cells were maintained in an incubator at 37 degrees C and 5% CO2 with 95% humidity. The PDC lines were cultured according to standard operating procedures established by the NCI PDMR. All PDCs were thawed and cultured in Matrigel-coated flasks prepared with a working solution of 1X Ham's F-12 nutrient mix, without supplementation (Invitrogen, Waltham, MA, cat. 11765054), 100 U/mL penicillin-streptomycin (Invitrogen, cat. 15140122), and 2.5% Matrigel (Corning Inc., Corning, NY, cat. 354248) for the first three passages. The 362531-283-R-J2-PDC and 782815-120-R-J1-PDC lines were cultured in 6C/Colon 1B media, which includes advanced DMEM/F-12 (Thermo Fisher Scientific, cat. 12634028), 10 mM HEPES (Thermo Fisher Scientific, cat. 15630080), 1X GlutaMAX supplement (Thermo Fisher Scientific, cat. 35050061), 0.1 mg/mL primocin (InvivoGen, San Diego, CA, cat. ant-pm-2), 10% defined fetal bovine serum, heat inactivated (HyClone Laboratories Inc., Logan, UT, cat. SH30070.03HI), 50% L-WRN conditioned media (ATCC, cat. CRL-3276), 1.25 mM N-Acetyl-L-cysteine (Sigma-Aldrich, cat. A9165), 10 mM nicotinamide (Sigma-Aldrich, cat. N0636), 1X B-27 supplement (Thermo Fisher Scientific, cat. 17504044), 1X N-2 supplement (Thermo Fisher Scientific, cat. 17502048), 50 ng/mL human EGF (Thermo Fisher Scientific, cat. PHG0311), and 10 microM Y-27632 dihydrochloride (Tocris Bioscience, cat. 1254). The K12877-001-R-J1-PDC line was cultured in 6I media, which includes all 6C/Colon 1B media plus 10 ng/mL human FGF-10 (PeproTech, cat. 100-26), 1 ng/mL human FGF-2 (PeproTech, cat. 100-18B), 1 µM prostaglandin E2 (Tocris Bioscience, cat. 2296), […] hydrocortisone (Sigma-Aldrich, cat. H4001), and […] bovine insulin (Sigma-Aldrich, cat. I6634). The K86415-001-R-J1-PDC line was cultured in 6D media, which includes all 6C/Colon 1B media components minus the L-WRN conditioned media. The 485176-168-R4-J1-PDC was cultured in PANC media, which includes all 6C/Colon 1B media plus 100 ng/mL human FGF-10 (PeproTech, cat. 100-26), 500 nM SB-431542 (Selleckchem, cat. S1067), and 10 nM gastrin (Tocris Bioscience, cat. 3006). […]
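Also: spheroids exposed to the agents for 7 days before readout.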
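For viability, T/C in this document: luminescence viability as percent of DMSO vehicle control wells.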

## CC(C)n1nc(-c2ccc3oc(N)nc3c2)c2c(N)ncnc21 + C=CC(=O)N1CCN(c2nc(OCC3CCCN3C)nc3c(F)c(-c4nc(N)cc(C)c4C(F)(F)F)c(Cl)cc23)C(C)C1
Second compound 0.00316 µM
  IC50: > 0.1 µM
Second compound 0.01 µM
  IC50: > 0.1 µM
Second compound 0.0316 µM
  IC50: > 0.1 µM
Second compound 0.1 µM
  IC50: > 0.1 µM
Second compound 0.316 µM
  IC50: > 0.1 µM
Second compound 1 µM
  IC50: > 0.1 µM
Second compound 0.00316 µM, first compound 0.000316 µM
  viability, T/C: 97.8%
Second compound 0.00316 µM, first compound 0.001 µM
  viability, T/C: 91.8%
Second compound 0.00316 µM, first compound 0.00316 µM
  viability, T/C: 101%
Second compound 0.00316 µM, first compound 0.01 µM
  viability, T/C: 89.2%
Second compound 0.00316 µM, first compound 0.0316 µM
  viability, T/C: 62.9%
Second compound 0.00316 µM, first compound 0.1 µM
  viability, T/C: 97.1%
Second compound 0.01 µM, first compound 0.000316 µM
  viability, T/C: 93.5%
Second compound 0.01 µM, first compound 0.001 µM
  viability, T/C: 92.2%
Second compound 0.01 µM, first compound 0.00316 µM
  viability, T/C: 105%
Second compound 0.01 µM, first compound 0.01 µM
  viability, T/C: 87.3%
Second compound 0.01 µM, first compound 0.0316 µM
  viability, T/C: 54.9%
Second compound 0.01 µM, first compound 0.1 µM
  viability, T/C: 89.7%
Second compound 0.0316 µM, first compound 0.000316 µM
  viability, T/C: 100%
Second compound 0.0316 µM, first compound 0.001 µM
  viability, T/C: 95.9%
Second compound 0.0316 µM, first compound 0.00316 µM
  viability, T/C: 102%
Second compound 0.0316 µM, first compound 0.01 µM
  viability, T/C: 80.7%
Second compound 0.0316 µM, first compound 0.0316 µM
  viability, T/C: 65.9%
Second compound 0.0316 µM, first compound 0.1 µM
  viability, T/C: 101%
Second compound 0.1 µM, first compound 0.000316 µM
  viability, T/C: 91.9%
Second compound 0.1 µM, first compound 0.001 µM
  viability, T/C: 93.1%
Second compound 0.1 µM, first compound 0.00316 µM
  viability, T/C: 99.6%
Second compound 0.1 µM, first compound 0.01 µM
  viability, T/C: 87%
Second compound 0.1 µM, first compound 0.0316 µM
  viability, T/C: 86.2%
Second compound 0.1 µM, first compound 0.1 µM
  viability, T/C: 64.5%
Second compound 0.316 µM, first compound 0.000316 µM
  viability, T/C: 107%
Second compound 0.316 µM, first compound 0.001 µM
  viability, T/C: 106%
Second compound 0.316 µM, first compound 0.00316 µM
  viability, T/C: 104%
Second compound 0.316 µM, first compound 0.01 µM
  viability, T/C: 106%
Second compound 0.316 µM, first compound 0.0316 µM
  viability, T/C: 68.2%
Second compound 0.316 µM, first compound 0.1 µM
  viability, T/C: 82.7%
Second compound 1 µM, first compound 0.000316 µM
  viability, T/C: 107%
Second compound 1 µM, first compound 0.001 µM
  viability, T/C: 105%
Second compound 1 µM, first compound 0.00316 µM
  viability, T/C: 97%
Second compound 1 µM, first compound 0.01 µM
  viability, T/C: 107%
Second compound 1 µM, first compound 0.0316 µM
  viability, T/C: 49.6%
Second compound 1 µM, first compound 0.1 µM
  viability, T/C: 81.5%

## CC1(O)CCCC1n1c(=O)c(C(F)F)cc2cnc(NC3CCN(S(C)(=O)=O)CC3)nc21 (centres undefined) + CCn1c(-c2cc(N3CCN(C)CC3)cnc2C(C)OC)c2c3cc(ccc31)-c1csc(n1)CC(NC(=O)C1CC1C)C(=O)N1CCCC(N1)C(=O)OCC(C)(C)C2
Second compound 0.000949 µM
  IC50: 5.44 µM
Second compound 0.003 µM
  IC50: 6.11 µM
Second compound 0.00949 µM
  IC50: 8.98 µM
Second compound 0.03 µM
  IC50: 5.9 µM
Second compound 0.0949 µM
  IC50: > 10 µM
Second compound 0.3 µM
  IC50: < 0.0316 µM
Second compound 0.000949 µM, first compound 0.0316 µM
  viability, T/C: 97.7%
Second compound 0.000949 µM, first compound 0.1 µM
  viability, T/C: 97.5%
Second compound 0.000949 µM, first compound 0.316 µM
  viability, T/C: 98%
Second compound 0.000949 µM, first compound 1 µM
  viability, T/C: 79.5%
Second compound 0.000949 µM, first compound 3.16 µM
  viability, T/C: 57.6%
Second compound 0.000949 µM, first compound 10 µM
  viability, T/C: 42.2%
Second compound 0.003 µM, first compound 0.0316 µM
  viability, T/C: 109%
Second compound 0.003 µM, first compound 0.1 µM
  viability, T/C: 112%
Second compound 0.003 µM, first compound 0.316 µM
  viability, T/C: 97.4%
Second compound 0.003 µM, first compound 1 µM
  viability, T/C: 76.9%
Second compound 0.003 µM, first compound 3.16 µM
  viability, T/C: 61.5%
Second compound 0.003 µM, first compound 10 µM
  viability, T/C: 42.4%
Second compound 0.00949 µM, first compound 0.0316 µM
  viability, T/C: 94.6%
Second compound 0.00949 µM, first compound 0.1 µM
  viability, T/C: 111%
Second compound 0.00949 µM, first compound 0.316 µM
  viability, T/C: 108%
Second compound 0.00949 µM, first compound 1 µM
  viability, T/C: 83.5%
Second compound 0.00949 µM, first compound 3.16 µM
  viability, T/C: 65.5%
Second compound 0.00949 µM, first compound 10 µM
  viability, T/C: 47.5%
Second compound 0.03 µM, first compound 0.0316 µM
  viability, T/C: 99.2%
Second compound 0.03 µM, first compound 0.1 µM
  viability, T/C: 99.1%
Second compound 0.03 µM, first compound 0.316 µM
  viability, T/C: 89.4%
Second compound 0.03 µM, first compound 1 µM
  viability, T/C: 87%
Second compound 0.03 µM, first compound 3.16 µM
  viability, T/C: 69.2%
Second compound 0.03 µM, first compound 10 µM
  viability, T/C: 33.9%
Second compound 0.0949 µM, first compound 0.0316 µM
  viability, T/C: 80.7%
Second compound 0.0949 µM, first compound 0.1 µM
  viability, T/C: 79.2%
Second compound 0.0949 µM, first compound 0.316 µM
  viability, T/C: 78.6%
Second compound 0.0949 µM, first compound 1 µM
  viability, T/C: 68.2%
Second compound 0.0949 µM, first compound 3.16 µM
  viability, T/C: 56.4%
Second compound 0.0949 µM, first compound 10 µM
  viability, T/C: 61%
Second compound 0.3 µM, first compound 0.0316 µM
  viability, T/C: 37.4%
Second compound 0.3 µM, first compound 0.1 µM
  viability, T/C: 50.2%
Second compound 0.3 µM, first compound 0.316 µM
  viability, T/C: 37.7%
Second compound 0.3 µM, first compound 1 µM
  viability, T/C: 55.8%
Second compound 0.3 µM, first compound 3.16 µM
  viability, T/C: 45.9%
Second compound 0.3 µM, first compound 10 µM
  viability, T/C: 7.05%
